# Values quoted from earlier work in patent US8034921B2, “IRNA agents targeting CCR5 expressing cells and uses thereof” (Alnylam Pharmaceuticals, Inc., priority 2006, dated 2011).
# Like-named read-outs stand apart in the source and are kept apart here.
# Tests used:
# [1] = in vivo
# CCR5 [2] = molecular target: T1, CCR5 (Homo sapiens, UniProt P51681); set-up: expressed in transfected cells; host or cells: CHO cells; details: CHO cells expressing recombinant human CCR5
# CCR5 [3] = molecular target: T1, CCR5; set-up: expressed in transfected cells; host or cells: CHO cells; details: membranes from CHO cells stably expressing recombinant human CCR5; read-out: IC50, binding of [125I]RANTES
# CCR5 [4] = molecular target: T1, CCR5; set-up: expressed in transfected cells; host or cells: CHO cells; details: CCR5-expressing CHO cells; read-out: IC50, inhibition of [125I]RANTES binding
# [5] = rodents
# HIV-1 gp120/CCR5 = HIV-1 gp120/CCR5 (Homo sapiens, UniProt P51681); details: read-out: IC50, HIV-1 gp120/CCR5 binding
# [6] = healthy volunteers
# cyano CCR5 = cyano CCR5 (Macaca fascicularis, UniProt P61814); details: cyano CCR5, transfected CHO cell membranes; read-out: IC50, CCR5 binding against [125I]MI-1α
# CCR5 [7] = molecular target: T1, CCR5; details: read-out: IC50, inhibition of [125I]MIP-1α binding
# T1 sequence (P51681 whole entry): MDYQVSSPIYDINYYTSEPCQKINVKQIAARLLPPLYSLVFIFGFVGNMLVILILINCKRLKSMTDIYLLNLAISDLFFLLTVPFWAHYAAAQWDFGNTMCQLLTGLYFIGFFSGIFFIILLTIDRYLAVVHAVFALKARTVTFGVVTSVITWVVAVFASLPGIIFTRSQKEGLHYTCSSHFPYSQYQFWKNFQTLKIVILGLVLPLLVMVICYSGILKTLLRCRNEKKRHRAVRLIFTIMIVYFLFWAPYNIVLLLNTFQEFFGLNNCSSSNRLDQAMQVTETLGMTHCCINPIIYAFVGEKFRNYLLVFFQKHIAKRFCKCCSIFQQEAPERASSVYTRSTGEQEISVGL
# Sequence of HIV-1 gp120/CCR5 (P51681 whole entry): as above
smiles,measurement,setting,value
COC[C@@H](c1ccc(C(F)(F)F)cc1)N1CCN(C2(C)CCN(C(=O)c3c(C)ncnc3C)CC2)C[C@@H]1C [Compound 1],viral load,"HIV-infected patients; 48 HIV-infected patients, phase I",dose-dependent reduction in viral load
same,cardiovascular side effects,"HIV-infected patients; human, in vivo",no cardiovascular side effects
same,bioavailability,[1],100%
CCN(C(=O)Cc1ccc(S(C)(=O)=O)cc1)C1CCN(C(C)CC(NC(=O)OC2CCOCC2)c2ccccc2)CC1 (stereo not shown) [Compound 3],IC50 for inhibition of CCL3 and CCL5 binding,CCR5 [2],sub-nanomolar range
CCN(C(=O)Cc1ccc(S(=O)(=O)N(C)C)cc1)C1CCN(CCC(c2ccccc2)c2ccccc2)CC1 [Compound 5b],IC50,CCR5 [3],< 10 nM
CCN(C(=O)Nc1ccc(S(C)(=O)=O)cc1)C1CCN(CCC(c2ccccc2)c2ccccc2)CC1 [Compound 7],IC50,CCR5 [3],49 nM
CS(=O)(=O)N1CCC(C(=O)N(CCCN2CCC(Cc3ccc(S(N)(=O)=O)cc3)CC2)c2ccc(Cl)c(Cl)c2)CC1 [Compound 9a],IC50,CCR5 [4],3.4 nM
CNS(=O)(=O)c1ccc(CC2CCN(CCCN(C(=O)C3CCN(S(C)(=O)=O)CC3)c3ccc(Cl)c(Cl)c3)CC2)cc1 [Compound 9b],IC50,CCR5 [4],1.5 nM
CN(C)S(=O)(=O)c1ccc(CC2CCN(CCCN(C(=O)C3CCN(S(C)(=O)=O)CC3)c3ccc(Cl)c(Cl)c3)CC2)cc1 [Compound 9c],IC50,CCR5 [4],1.2 nM
CS(=O)(=O)N1CCC(C(=O)N(CCCN2CCC(Cc3ccc(S(=O)(=O)N4CCOCC4)cc3)CC2)c2ccc(Cl)c(Cl)c2)CC1 [Compound 9d],IC50,CCR5 [4],1.3 nM
CCCCN1C(=O)C(CC2CCCCC2)NC(=O)C12CCN(Cc1ccc3c(c1)OCCO3)CC2 (stereo not shown) [Compound 13],oral bioavailability,[5],favorable
same,IC50,HIV-1 gp120/CCR5,1 nM
same,activity against a wide range of R5 HIV-1 isolates,R5 HIV-1 isolates,potent activity
same,QTc prolongation,[6],some incidents of QTc prolongation
same,serious adverse events,[6],No serious adverse events
same,tolerated dose,[6]; multiple dosing twice a day,800 mg
same,tolerated dose,[6]; single dose,1200 mg
O=C(Nc1ccc(Cl)cc1)N(CCCN1CCC(Cc2ccc(S(=O)(=O)N3CCOCC3)cc2)CC1)c1ccccc1 [Compound 15],IC50,CCR5 [4],1 nM
CCCCOCCOc1ccc(-c2ccc3c(c2)C=C(C(=O)Nc2ccc(CN(C)C4CCOCC4)cc2)CCS3(=O)=O)cc1 [Compound 17a],IC50,CCR5 [4],27 nM
CCCCOCCOc1ccc(-c2ccc3c(c2)C=C(C(=O)Nc2ccc(CN(C)C4CCOCC4)cc2)CCN3CC(C)C)cc1 [Compound 17b],IC50,CCR5 [4],3.6 nM
Cc1cccc(C)c1C(=O)N1CCC(C)(N2CCC(N(Cc3ccccc3)c3ccccc3)CC2)CC1 [Compound 19],IC50,cyano CCR5,0.7 nM
C=CCN(C(=O)OCc1ccc([N+](=O)[O-])cc1)C1CCN(CCC(C)(CN(C)S(=O)(=O)c2ccccc2)c2ccccc2)CC1 (stereo not shown) [Compound 21],IC50,CCR5 [7],4.4 nM
